Experimental data as given in US10683278B2 (JINAN UNIVERSITY, priority 2015, dated 2020).
Where two headings read alike, the source gives them in different places.

Experiments:
[1] = In vivo pharmacokinetic and bioavailability experiments of rats; parameters: species or system SD rats; details: for pharmacokinetic parameter, overall judgement: hydrochlorides, in words; for bioavailability: po, 25 mg/kg, read-out: F (oral bioavailability)
Description: Pharmacokinetic and bioavailability experiments of rats. SD rats were administered orally (25 mg/kg) and intravenously (2.5 to 5 mg/kg) at a single dose. Animal blood samples were taken at appropriate time points after administration, heparin was added as anticoagulant, and same were centrifuged at 8000 rpm/min for 6 minutes, the supernatant was then taken and stored at −20° C. for HPLC-MS analysis. The proteins in blood samples were precipitated with acetonitrile at 12000 rpm for 10 min, and the supernatant was used for HPCL-MS analysis. Data were fit using DAS2.0 to obtain compartmental model and non-compartmental model parameters, respectively. The oral bioavailability of each compound was calculated according to AUC data.

AXL kinase = target: T1, AXL kinase (Homo sapiens, UniProt P30530); assay: IC50 test on AXL kinase (Z′-LYTE FRET kinase activity detection); type: biochemical; details: for IC50: Z′-LYTE FRET peptide assay, 1 h reaction; for inhibitory activity on AXL kinase: competitive experiment with ATP, in words
T1 construct: purchased Invitrogen PV4803
T1 sequence (P30530 26-894): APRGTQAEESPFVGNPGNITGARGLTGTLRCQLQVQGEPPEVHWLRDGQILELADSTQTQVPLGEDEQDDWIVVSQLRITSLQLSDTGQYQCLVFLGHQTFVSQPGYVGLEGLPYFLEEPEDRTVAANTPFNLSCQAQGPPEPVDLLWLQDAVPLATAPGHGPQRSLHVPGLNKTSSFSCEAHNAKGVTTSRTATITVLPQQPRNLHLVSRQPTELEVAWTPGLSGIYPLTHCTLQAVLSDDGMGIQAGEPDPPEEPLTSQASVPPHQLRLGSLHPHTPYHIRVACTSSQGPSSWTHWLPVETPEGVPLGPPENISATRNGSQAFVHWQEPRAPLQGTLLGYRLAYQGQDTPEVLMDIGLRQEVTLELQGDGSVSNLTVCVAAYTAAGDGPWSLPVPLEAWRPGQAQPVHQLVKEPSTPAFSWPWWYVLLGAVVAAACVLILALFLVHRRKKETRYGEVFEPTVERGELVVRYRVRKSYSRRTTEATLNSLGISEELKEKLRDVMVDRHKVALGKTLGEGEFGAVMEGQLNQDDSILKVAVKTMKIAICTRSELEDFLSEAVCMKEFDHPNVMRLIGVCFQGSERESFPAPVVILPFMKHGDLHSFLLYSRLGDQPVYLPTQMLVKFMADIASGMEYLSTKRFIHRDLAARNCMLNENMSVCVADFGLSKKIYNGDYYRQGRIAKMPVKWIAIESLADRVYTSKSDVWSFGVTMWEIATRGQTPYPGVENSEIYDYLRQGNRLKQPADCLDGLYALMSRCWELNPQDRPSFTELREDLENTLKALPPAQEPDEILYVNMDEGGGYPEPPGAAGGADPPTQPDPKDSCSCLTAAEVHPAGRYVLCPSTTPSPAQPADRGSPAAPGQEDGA
Method in brief: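 Z′-LYTE FRET readout: after 1 h kinase reaction (AXL, Tyr 2 peptide, ATP, compound dilutions), a 1 h protease step cuts unphosphorylated substrate. Excitation at 400 nm, signals at 445 nm and 520 nm used to derive IC50.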

[2] = Sprague-Dawley, rat, plasma, SD rats, Po, 25 mg/kg single dose
[3] = Sprague-Dawley, rat, plasma, SD rats, Po, 25 mg/kg single dose, read-out: Cmax
[4] = Sprague-Dawley, rat, plasma, SD rats, iv, 5 mg/kg single dose
[5] = Sprague-Dawley, rat, plasma, SD rats, iv, 5 mg/kg single dose, read-out: Cmax
[6] = SD rats, Po, 25 mg/kg single dose
[7] = SD rats, iv, 2.5 mg/kg single dose

| pharmacokinetic parameter, overall judgement ([1]; SD rats) | bioavailability ([1]; Sprague-Dawley, rat, plasma) [%] | AUC(0-inf) [1, 2] [ng·h/mL] | AUC(0-t) [1, 2] [ng·h/mL] | half-life [1, 2] [h] | Cmax [1, 3] [ng/mL] | AUC(0-inf) [1, 4] [ng·h/mL] | AUC(0-t) [1, 4] [ng·h/mL] | clearance [1, 4] [mL/min/kg] | half-life [1, 4] [h] | Cmax [1, 5] [ng/mL] | IC50 (AXL kinase) [nM] | inhibitory activity on AXL kinase (AXL kinase) | AUC(0-∞) [1, 6] [ng·h/mL] | Cmax [1, 6] [ng/mL] | T1/2 [1, 6] [h] | SMILES | also measured |
| --- | --- | --- | --- | --- | --- | --- | --- | --- | --- | --- | --- | --- | --- | --- | --- | --- | --- |
| appropriate pharmacokinetic parameter | 44.3 | 25600 | 25100 | 4.59 | 4630 | 11600 | 11300 | 7.5 | 5.82 | 16800 | 6 | strong inhibitory activity |  |  |  | CCc1ccc2c(c1)c(=O)c(C(=O)Nc1ccc(Oc3ncnc4cc(OCCN(C)C)c(OC)cc34)c(F)c1)c(C)n2C [GDL5000128, N-(4-(7-(2-(dimethylamino)ethoxy)-6-methoxyquinazolin-4-yloxy)-3-fluorophenyl)-6-ethyl-1,2-dimethyl-4-oxo-1,4-dihydroquinoline-3-carboxamide] |  |
|  | 12.1 | 25900 | 24400 | 5.68 | 2390 | 20700 | 20300 | 2 | 4.26 | 4360 | 28 |  |  |  |  | COc1cc2ncnc(Oc3ccc(NC(=O)c4cn5c6c(c(N7CCC(O)CC7)c(F)cc6c4=O)CCC5C)cc3F)c2cc1OC (stereo not shown) [TL4830031, N-(4-((6,7-dimethoxyquinazolin-4-yl)oxy)-3-fluorophenyl)-9-fluoro-8-(4-hydroxypiperidin-1-yl)-5-methyl-1-oxo-1,5,6,7-tetrahydropyrido[3,2,1-ij]quinoline-2-carboxamide] |  |
| appropriate pharmacokinetic parameter | 27.5 | 31300 | 11300 | 34.8 | 656 | 8530 | 8220 | 9.83 | 5.72 | 3560 | 3 | strong inhibitory activity |  |  |  | CCc1ccc2c(c1)c(=O)c(C(=O)Nc1ccc(Oc3ncnc4cc(OCCCN5CCN(C)CC5)c(OC)cc34)c(F)c1)c(C)n2C [GDL5000138, 6-ethyl-N-(3-fluoro-4-(6-methoxy-7-(3-(4-methylpiperazin-1-yl)propoxy)quinazolin-4-yloxy)phenyl)-1,2-dimethyl-4-oxo-1,4-dihydroquinoline-3-carboxamide] |  |
|  | 1.23 |  | 371 |  |  |  |  |  |  |  | 6 |  | 505.71 | 121.74 | 3.72 | CCc1ccc2c(c1)c(=O)c(C(=O)Nc1ccc(Oc3ncnc4[nH]cc(-c5ccccc5)c34)c(F)c1)c(C)n2C [TL4800075, 6-ethyl-N-(3-fluoro-4-((5-phenyl-7H-pyrrolo[2,3-d]pyrimidin-4-yl)oxy)phenyl)-1,2-dimethyl-4-oxo-1,4-dihydroquinoline-3-carboxamide] | AUC(0-∞) [1, 7]: 3029.64 ng·h/mL; CL [1, 7]: 13.8 mL/min/kg; Cmax [1, 7]: 2910.13 ng/mL; T1/2 [1, 7]: 0.87 h; AUC(0-t) ([1]; Sprague-Dawley, rat, plasma, SD rats, iv, 2.5 mg/kg single dose): 3020 ng·h/mL |
|  |  |  | 31300 |  |  | 42300 | 30500 | 1.67 | 25.2 | 1170 | 4 |  | 31505 | 1967 | 10.2 | CCc1ccc2c(c1)c(=O)c(C(=O)Nc1ccc(Oc3ncnc4cc(OC)c(OC)cc34)c(F)c1)c(C)n2C [TL4800191, N-(4-(6,7-dimethoxyquinazolin-4-yloxy)-3-fluorophenyl)-6-ethyl-1,2-dimethyl-4-oxo-1,4-dihydroquinoline-3-carboxamide] | F (oral bioavailability) ([1]; SD rats, Po 25 mg/kg vs iv 2.5 to 5 mg/kg, calculated according to AUC data): 14.9%; CL [1, 6]: 15 mL/min/kg |
| appropriate pharmacokinetic parameter | 23.5 | 118000 | 51500 | 26.7 | 3080 | 47700 | 43800 | 1.83 | 6.7 | 6480 | 8 | strong inhibitory activity |  |  |  | CCc1ccc2c(c1)c(=O)c(C(=O)Nc1ccc(Oc3ncnc4cc(OCCCN5CCOCC5)c(OC)cc34)c(F)c1)c(C)n2C [GDL5000123, 6-ethyl-N-(3-fluoro-4-((6-methoxy-7-(3-morpholinopropoxy)quinazolin-4-yl)oxy)phenyl)-1,2-dimethyl-4-oxo-1,4-dihydroquinoline-3-carboxamide] |  |
